Patent publication US7943628B2, “Pyrimidine derivatives” (Pfizer Limited, priority 2005, dated 2011)
Structures can show the parent of a compound that is named as a salt.

target: T1, histamine H4 receptor (Homo sapiens, UniProt Q9H3N8); test: H4 binding, method 1 ([3H]-histamine filtration binding on CHO cell membranes); conditions: 1.5 h
T1 construct: expressed in transfected cells; host or cells: CHO cells
Procedure: Cell pellets from CHO cells expressing the histamine H4 receptor were homogenised in ice-cold 50 mM Tris-HCl/0.5 mM CaCl2 buffer containing a protease inhibitor cocktail (Roche®, United Kingdom) using a ground glass homogeniser. Homogenates were centrifuged at 48000 g for 30 min at 4° C. The membrane pellet was resuspended in fresh buffer and the centrifugation step was repeated as described above. The membrane pellet was resuspended in 50 mM Tris-HCl in the same volume as the original cell pellet. Aliquots of membrane preparations were stored at −80° C. and were used for [^3H]-Histamine binding experiments.
Cell membranes (20-35 μg/well) were incubated for 90 minutes shaking at room temperature with 3 nM [2,5-^3H]Histamine dihydrochloride (30-60 Ci/mmol) in 50 mM Tris-HCl (pH 7.4), with or without competing H4 ligands. The reaction was terminated by rapid filtration through 0.5% polyethylenimine-soaked Unifilter GF/B plates (Packard) followed by three washes with 1 ml ice-cold 50 mM Tris-HCl. Filters were dried for 45 min at 45° C. and bound radiolabel was determined using scintillation counting techniques. Non-specific binding was defined with 10 μM JNJ7777120.

T1 sequence (Q9H3N8 whole entry): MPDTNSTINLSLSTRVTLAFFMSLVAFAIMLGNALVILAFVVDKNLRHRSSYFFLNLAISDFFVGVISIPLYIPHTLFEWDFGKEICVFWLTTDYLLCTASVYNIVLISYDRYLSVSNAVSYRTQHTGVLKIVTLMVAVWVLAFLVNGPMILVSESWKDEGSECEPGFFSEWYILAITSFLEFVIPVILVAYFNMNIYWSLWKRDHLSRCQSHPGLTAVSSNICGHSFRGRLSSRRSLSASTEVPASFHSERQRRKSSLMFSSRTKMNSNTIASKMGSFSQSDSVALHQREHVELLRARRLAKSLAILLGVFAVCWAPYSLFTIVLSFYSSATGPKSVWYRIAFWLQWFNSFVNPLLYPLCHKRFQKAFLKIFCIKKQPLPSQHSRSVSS

First: CNc1cc(N2CCCC(NC)C2)nc(N)n1 (stereo not drawn) [Example 321, N^4-Methyl-6-[3-(methylamino)piperidin-1-yl]pyrimidine-2,4-diamine]
Second: CCCNc1cc(N2CCCC(NC)C2)nc(N)n1 (stereo not drawn) [Example 323, 6-[3-(Methylamino)piperidin-1-yl]-N^4-propylpyrimidine-2,4-diamine]
The inhibition at 20 µM of the first is lower: 15% for the first, 85% for the second.

c1nc(NC[C@@H]2CCCO2)cc(N[C@H]2CCNC2)n1 [Example 290, N-[(3S)-Pyrrolidin-3-yl]-N′-[(2S)-tetrahydrofuran-2-ylmethyl]pyrimidine-4,6-diamine] and CC(C)(C)CCNc1cc(N2CCN(CCO)CC2)ncn1 [Example 307, 2-(4-{6-[(3,3-Dimethylbutyl)amino]pyrimidin-4-yl}piperazin-1-yl)ethanol] are the same in inhibition at 10 µM: 24% for the first, 24% for the second.

same assay, conditions: H4 binding, method 1; Ki calculated from IC50 (Cheng-Prussoff)

Going from c1nc(NC[C@H]2CCCO2)cc(N[C@H]2CCNC2)n1 [Example 319, N-[(3S)-Pyrrolidin-3-yl]-N′-[(2R)-tetrahydrofuran-2-ylmethyl]pyrimidine-4,6-diamine] to C[C@H]1CN(c2cc(NC3CC3)ncn2)CCN1 [Example 252, N-Cyclopropyl-6-[(3S)-3-methylpiperazin-1-yl]pyrimidin-4-amine], the Ki falls from 6010 nM to 370 nM (16-fold).

Compared with CNc1cc(N2CC(C)(NC)C2)nc(N)n1 [Example 248, N^4-Methyl-6-[3-methyl-3-(methylamino)azetidin-1-yl]pyrimidine-2,4-diamine], CNC1(C)CN(c2cc(NCC(C)(C)C)nc(N)n2)C1 [Example 186, N^4-(2,2-Dimethylpropyl)-6-[3-methyl-3-(methylamino)azetidin-1-yl]pyrimidine-2,4-diamine] is 15-fold lower in Ki: 329 nM for the first, 22.2 nM for the second.

Going from CNC1CN(c2cc(NC3CCC3)nc(N)n2)C1 [Example 75, N^4-Cyclobutyl-6-[3-(methylamino)azetidin-1-yl]pyrimidine-2,4-diamine] to Nc1nc(NC2CCC2)cc(N2C[C@H]3CCCN[C@H]3C2)n1 [Example 230, N^4-Cyclobutyl-6-[(4aR,7aR)-octahydro-6H-pyrrolo[3,4-b]pyridin-6-yl]pyrimidine-2,4-diamine], the Ki rises from 1.07 nM to 127 nM (120-fold). The first binds more tightly here.

Compared with CN[C@@H]1CCN(c2cc(NCc3cc(F)ccc3F)nc(N)n2)C1 [Example 245, N^4-(2,5-Difluorobenzyl)-6-[(3R)-3-(methylamino)pyrrolidin-1-yl]pyrimidine-2,4-diamine], CCNc1cc(N2CC[C@H](NC)C2)nc(N)n1 [Example 205, N^4-Ethyl-6-[(3S)-3-(methylamino)pyrrolidin-1-yl]pyrimidine-2,4-diamine] is 7.6-fold lower in Ki: 298 nM for the first, 39.3 nM for the second. The second binds more tightly here.

Going from CN[C@@H]1CCN(c2cc(NC3(C)CC3)nc(N)n2)C1 [Example 149, 6-[(3R)-3-(Methylamino)pyrrolidin-1-yl]-N^4-(1-methylcyclopropyl)pyrimidine-2,4-diamine] to CN[C@H]1CCN(c2cc(NCC3CC3)nc(N)n2)C1 [Example 204, N^4-(Cyclopropylmethyl)-6-[(3S)-3-(methylamino)pyrrolidin-1-yl]pyrimidine-2,4-diamine], the Ki rises from 5.2 nM to 39 nM (7.5-fold). The first binds more tightly here.

Going from CNC1CN(c2cc(NCC(C)(C)C)nc(N)n2)C1 [Example 159, N^4-(2,2-Dimethylpropyl)-6-[3-(methylamino)azetidin-1-yl]pyrimidine-2,4-diamine hydrochloride] to CNC1CCCN(c2cc(NCC(C)(C)C)nc(N)n2)C1 (stereo not drawn) [Example 250, N^4-(2,2-Dimethylpropyl)-6-[3-(methylamino)piperidin-1-yl]pyrimidine-2,4-diamine], the Ki rises from 2.62 nM to 353 nM (130-fold).

First: CC(C)(C)Nc1cc(N2C[C@@H]3CCCN[C@@H]3C2)nc(N)n1 (relative stereo) [Example 150, N^4-(tert-Butyl)-6-[(4aS*,7aS*)-octahydro-6H-pyrrolo[3,4-b]pyridin-6-yl]pyrimidine-2,4-diamine]
Second: CC(C)(C)CNc1cc(N2C[C@@H]3CCCN[C@@H]3C2)nc(N)n1 [Example 166, N^4-(2,2-Dimethylpropyl)-6-[(4aS,7aS)-octahydro-6H-pyrrolo[3,4-b]pyridin-6-yl]pyrimidine-2,4-diamine]
The Ki of the first is 3-fold higher: 11.8 nM for the first, 3.99 nM for the second. The second binds more tightly here.

CC[C@@H](C)Nc1cc(N2CC[C@@H](NC)C2)ncn1 [Example 146, 6-[(3R)-3-(Methylamino)pyrrolidin-1-yl]-N-[(1R)-1-methylpropyl]pyrimidin-4-amine] and CC[C@@H](C)Nc1cc(N2CC[C@@H](NC)C2)nc(N)n1 [Example 152, 6-[(3R)-3-(Methylamino)pyrrolidin-1-yl]-N^4-[(1R)-1-methylpropyl]pyrimidine-2,4-diamine] are within 1.5-fold of each other in Ki: 13.7 nM for the first, 16.9 nM for the second.

First: CC(C)(C)CCNc1cc(N[C@H]2CCNC2)nc(N)n1 [Example 101, N^4-(3,3-Dimethylbutyl)-N^6-[(3S)-pyrrolidin-3-yl]pyrimidine-2,4,6-triamine]
Second: CC(C)(C)CNc1cc(NC2C3CNCC32)nc(N)n1 (stereo not drawn) [Example 222, N^4-[(1R*,5S*,6s*)-3-Azabicyclo[3.1.0]hex-6-yl]-N^6-(2,2-dimethylpropyl)pyrimidine-2,4,6-triamine]
The Ki of the first is 4.9-fold higher: 463 nM for the first, 95.2 nM for the second.

Compared with CC(C)(C)CNc1cc(N2CCC(N)CC2)nc(N)n1 [Example 201, 6-(4-Aminopiperidin-1-yl)-N^4-(2,2-dimethylpropyl)pyrimidine-2,4-diamine], CCNc1cc(N2CCC(N)CC2)nc(N)n1 [Example 139, 6-(4-Aminopiperidin-1-yl)-N^4-ethylpyrimidine-2,4-diamine] is 2.9-fold lower in Ki: 35 nM for the first, 12.1 nM for the second.

Compared with CCCNc1cc(N2CCC(C)(N)C2)nc(N)n1 (stereo not drawn) [Example 264, 6-(3-Amino-3-methylpyrrolidin-1-yl)-N^4-propylpyrimidine-2,4-diamine], CCCCNc1cc(N2CC(NC)C2)nc(N)n1 [Example 132, N^4-Butyl-6-[3-(methylamino)azetidin-1-yl]pyrimidine-2,4-diamine] is 890-fold lower in Ki: 704 nM for the first, 0.791 nM for the second.

Compared with Nc1nc(NC2CC2)cc(N2CCC3NCCC3C2)n1 (stereo not drawn) [Example 172, N^4-Cycopropyl-6-[(3aR*,7aS*)-octahydro-5H-pyrrolo[3,2-c]pyridin-5-yl]pyrimidine-2,4-diamine], CC(C)Nc1cc(N2CCC3NCCC3C2)nc(N)n1 (stereo not drawn) [Example 231, N^4-Isopropyl-6-(octahydro-5H-pyrrolo[3,2-c]pyridin-5-yl)pyrimidine-2,4-diamine] is 14-fold higher in Ki: 9.3 nM for the first, 131 nM for the second.

First: CN(C)CCNc1cc(NCC2CC2)ncn1 [Example 194, N-(Cyclopropylmethyl)-N′-[2-(dimethylamino)ethyl]pyrimidine4,6-diamine]
Second: CN1CC[C@H](Nc2cc(NCCC(C)(C)C)ncn2)C1 [Example 296, N-(3,3-Dimethylbutyl)-N′-[(3S)-1-methylpyrrolidin-3-yl]pyrimidine-4,6-diamine]
The Ki of the first is 100-fold lower: 32.4 nM for the first, 3300 nM for the second. The first binds more tightly here.

Compared with CNCC1CN(c2cc(NCC3CC3)nc(N)n2)C1 [Example 227, N^4-(Cyclopropylmethyl)-6-{3-[(methylamino)methyl]azetidin-1-yl}pyrimidine-2,4-diamine], CN[C@@H]1CCN(c2cc(NCC3CC3)nc(N)n2)C1 [Example 167, N^4-(Cyclopropylmethyl)-6-[(3R)-3-(methylamino)pyrrolidin-1-yl]pyrimidine-2,4-diamine] is 18-fold lower in Ki: 115 nM for the first, 6.3 nM for the second. The second binds more tightly here.

Compared with CCNc1cc(N2CCCN(C)CC2)nc(N)n1 [Example 185, N^4-Ethyl-6-(4-methyl-1,4-diazepan-1-yl)pyrimidine-2,4-diamine], CC(C)Nc1cc(N2CCCN(C)CC2)nc(N)n1 [Example 198, N^4-isoPropyl-6-(4-methyl-1,4-diazepan-1-yl)pyrimidine-2,4-diamine] is 1.6-fold higher in Ki: 20.5 nM for the first, 33.6 nM for the second.

Compared with Nc1nc(NCC2CC2)cc(N2C[C@H]3CCCN[C@H]3C2)n1 [Example 165, N^4-(Cyclopropylmethyl)-6-[(4aR,7aR)-octahydro-6H-pyrrolo[3,4-b]pyridin-6-yl]pyrimidine-2,4-diamine], CNc1cc(N2CCNCC2)nc(N)n1 [Example 208, N^4-Methyl-6-piperazin-1-ylpyrimidine-2,4-diamine] is 12-fold higher in Ki: 3.83 nM for the first, 45.1 nM for the second.

Going from CNC1CN(c2cc(N3CC(F)(F)C3)nc(N)n2)C1 [Example 236, 4-(3,3-Difluoroazetidin-1-yl)-6-[3-(methylamino)azetidin-1-yl]pyrimidin-2-amine] to C[C@H]1CN(c2cc(NCc3ccccc3F)nc(N)n2)CCN1 [Example 213, N^4-(2-Fluorobenzyl)-6-[(3S)-3-methylpiperazin-1-yl]pyrimidine-2,4-diamine], the Ki falls from 205 nM to 52.9 nM (3.9-fold). The second binds more tightly here.

C[C@@H]1CN(c2cc(NCc3ccccc3F)nc(N)n2)CCN1 [Example 237, N^4-(2-Fluorobenzyl)-6-[(3R)-3-methylpiperazin-1-yl]pyrimidine-2,4-diamine] was tested, and the Ki was 211 nM.

same assay, conditions: at 6.3 μM

With CNc1cc(N2CCC(C)(N)C2)nc(N)n1 (stereo not drawn) [Example 320, 6-(3-Amino-3-methylpyrrolidin-1-yl)-N^4-methylpyrimidine-2,4-diamine] the “Method 1, % at 6.3 μM” value was 46% at 6.3 μM.

same assay, conditions: at 10 μM

For CN[C@H]1[C@@H]2CN(c3cc(NCCC(C)(C)C)nc(N)n3)C[C@@H]21 [Example 309, N^4-(3,3-Dimethylbutyl)-6-[(1R,5S,6s)-6-(methylamino)-3-azabicyclo[3.1.0]hex-3-yl]pyrimidine-2,4-diamine], the “Method 1, % at 10 μM” value was 26% at 10 μM.

same assay, conditions: top dose 10 μM

CNC1CN(c2cc(NCc3c(F)cccc3F)nc(N)n2)C1 [Example 317, N^4-(2,6-Difluorobenzyl)-6-[3-(methylamino)azetidin-1-yl]pyrimidine-2,4-diamine] was tested, and the “Method 1, activity at top dose (10 μM)” value was “No activity at top”.
